# Reference: patent publication US20260014092A1, “EXTRACELLULAR VESICLES FROM MICROALGAE, THEIR USE FOR VACCINES AND FOR IMMUNOMODULATION” (AGS THERAPEUTICS SAS, priority 2023, published 2026)
# Several values for one entry are separate records, joined by “and”; a condition that tells them apart may be missing. Identical values can stand only once. In the oligonucleotide strings, read from the 5' end, every base follows the letter of its sugar. An asterisk marks phosphorothioate; unmarked linkages are phosphodiester. Other units and linkages are bracketed, terminal groups are in braces. A string of capitals states the bases alone. d = 2'-deoxy (DNA)
# Experiments:
# [1] = system: DSS-induced acute experimental colitis; assay: DSS-induced acute colitis (IBD model): Disease Activity Index (DAI); assay type: in vivo, C57BL/6 female mice; parameters: scale not given here; details: i.r.
# Experimental: In mice, the disease can be induced by the treatment with Dextran Sodium Sulfate (DSS) to create a disease model for the evaluation of experimental therapies. Thus, the treatment of mice suffering from DSS-induced acute experimental colitis is a widely used animal model for the evaluation of therapies against the IBD disease. In our case, acute colitis was induced in mice by DSS 3% in drinking water for eight days. […] All handling of animals was conducted carefully to reduce stress to the minimum. All the experiments were performed in compliance with the guidelines of the French Ministry of Agriculture for experiments with laboratory animals.
# Animals were randomized before treatment group's allocation based on body weight. The disease was induced by administration of DSS in drinking water (3%, w/v, MW: 40000, TdB Consultancy AB) in C57BL/6 female mice at 9 weeks of age. Mice were administered with test compounds either at D3 and D6 (M1, M3 and M5 intrarectal), or daily from D3 to D6 (M2 and M4, per os). Experimental groups were as follows: seven animals per group; a total of 49 mice.
# Mice were euthanized at D8; samples were harvested to determine the extent of intestinal inflammation using various quantitative and semi quantitative methods including body weight evolution, clinical score (Disease Activity index; DAI, Table 13, below), large intestine measurement, cytokine analysis in colon and/or ileum tissue (TNFα, TGFβ, IFNα, IFNγ, IL-6 and IL-17A) and intestinal and colon histopathology for inflammation analysis, as follows and as summarized in Table 14, below.
# In-Life Samples (all groups) • Bodyweight (daily) • Disease Activity Index (DAI) (diarrhea and blood in stool)
# The life samples were recovered every day: i. body weight, ii. diarrhea, and iii. blood in stool and used to determine the disease activity index (DAI). The results are summarized in Table 33, for each animal in each group for seven consecutive days.
# [2] = cited from earlier work
compound,measurement,setting,value
ODN 1585 (DNA dG*dG*dGdGdTdCdAdAdCdGdTdTdGdAdG*dG*dG*dG*dG*dG) [ODNA],"Cumulative score (DAI), Mean","[1]; D 0, group mean, D 3 and D 6, 50 μg/mouse",0.00
same,Cumulative score (DAI),"[1]; D 0, individual mice, D 3 and D 6, 50 μg/mouse",0
same,"Cumulative score (DAI), Mean","[1]; D 1, group mean, D 3 and D 6, 50 μg/mouse",0.14
same,Cumulative score (DAI),"[1]; D 1, individual mice, D 3 and D 6, 50 μg/mouse",0 (6×) and 1
same,"Cumulative score (DAI), Mean","[1]; D 2, group mean, D 3 and D 6, 50 μg/mouse",0.14
same,Cumulative score (DAI),"[1]; D 2, individual mice, D 3 and D 6, 50 μg/mouse",0 (6×) and 1
same,"Cumulative score (DAI), Mean","[1]; D 3, group mean, D 3 and D 6, 50 μg/mouse",0.14
same,Cumulative score (DAI),"[1]; D 3, individual mice, D 3 and D 6, 50 μg/mouse",0 (6×) and 1
same,"Cumulative score (DAI), Mean","[1]; D 4, group mean, D 3 and D 6, 50 μg/mouse",1.71
same,Cumulative score (DAI),"[1]; D 4, individual mice, D 3 and D 6, 50 μg/mouse",2 and 5 and 3 and 1 (2×) and 0 (2×)
same,"Cumulative score (DAI), Mean","[1]; D 5, group mean, D 3 and D 6, 50 μg/mouse",4.14
same,Cumulative score (DAI),"[1]; D 5, individual mice, D 3 and D 6, 50 μg/mouse",2 and 8 and 4 (2×) and 3 (2×) and 5
same,"Cumulative score (DAI), Mean","[1]; D 6, group mean, D 3 and D 6, 50 μg/mouse",6.14
same,Cumulative score (DAI),"[1]; D 6, individual mice, D 3 and D 6, 50 μg/mouse",7 (4×) and 6 (2×) and 3
same,"Cumulative score (DAI), Mean","[1]; D 7, group mean, D 3 and D 6, 50 μg/mouse",6.71
same,Cumulative score (DAI),"[1]; D 7, individual mice, D 3 and D 6, 50 μg/mouse",8 (3×) and 7 (2×) and 6 and 3
CCCCCCCCCCCCCCCCCCCCCC[N+]1=C(/C=C/C=C2/N(CCCCCCCCCCCCCC)c3ccccc3C2(C)C)C(C)(C)c2ccccc21.[I-] [PKH26],in vivo half-life,[2],over 100 days
"cobitolimob (DNA GGAACAGTTCGTCCATGGC; listed as DNA, chemistry not given here) [ODNX]","Cumulative score (DAI), Mean","[1]; D 0, group mean, D 3 and D 6, 100 μg/mouse",0.00
same,Cumulative score (DAI),"[1]; D 0, individual mice, D 3 and D 6, 100 μg/mouse",0
same,"Cumulative score (DAI), Mean","[1]; D 1, group mean, D 3 and D 6, 100 μg/mouse",0.00
same,Cumulative score (DAI),"[1]; D 1, individual mice, D 3 and D 6, 100 μg/mouse",0
same,"Cumulative score (DAI), Mean","[1]; D 2, group mean, D 3 and D 6, 100 μg/mouse",0.14
same,Cumulative score (DAI),"[1]; D 2, individual mice, D 3 and D 6, 100 μg/mouse",0 (6×) and 1
same,"Cumulative score (DAI), Mean","[1]; D 3, group mean, D 3 and D 6, 100 μg/mouse",0.57
same,Cumulative score (DAI),"[1]; D 3, individual mice, D 3 and D 6, 100 μg/mouse",0 (5×) and 3 and 1
same,"Cumulative score (DAI), Mean","[1]; D 4, group mean, D 3 and D 6, 100 μg/mouse",2.43
same,Cumulative score (DAI),"[1]; D 4, individual mice, D 3 and D 6, 100 μg/mouse",5 and 3 (2×) and 0 (2×) and 2 and 4
same,"Cumulative score (DAI), Mean","[1]; D 5, group mean, D 3 and D 6, 100 μg/mouse",4.14
same,Cumulative score (DAI),"[1]; D 5, individual mice, D 3 and D 6, 100 μg/mouse",4 (3×) and 5 (2×) and 1 and 6
same,"Cumulative score (DAI), Mean","[1]; D 6, group mean, D 3 and D 6, 100 μg/mouse",5.71
same,Cumulative score (DAI),"[1]; D 6, individual mice, D 3 and D 6, 100 μg/mouse",7 and 6 and 4 and 5 (2×) and 3 and 10
same,"Cumulative score (DAI), Mean","[1]; D 7, group mean, D 3 and D 6, 100 μg/mouse",7.43
same,Cumulative score (DAI),"[1]; D 7, individual mice, D 3 and D 6, 100 μg/mouse",10 (2×) and 7 and 5 and 6 (2×) and 8
